The text below walks through data of ChEMBL document CHEMBL2331555 (ACS Med Chem Lett, 2013).

As a reminder, the Papp is the rate of passage across a membrane or cell layer, normalised by area and donor concentration. One may read the solubility (kinetic) as the concentration staying in solution when a stock, usually in DMSO, is diluted into the medium. In general, Vd refers to a proportionality between amount in the body and measured concentration, not a real space. A high value points to extensive tissue distribution. A word on the bioavailability: it is the share of a dose that reaches the circulation, judged against a reference dose that is usually intravenous.

Values after ≈ are worked out from the molar mass of the structure shown.

One data set in a line: in vitro. Conditions: dog, MDCK.
A short description of data set [1]: in vivo. Conditions: rat.
The nature of data set [2]: in vivo. Conditions: rat, po.

`COc1ccc(-c2ccc3ncc4c(c3n2)n(C2CCN(C(C)=O)CC2)c(=O)n4C)cn1` came in with a Papp in the data set “in vitro” of 16.3 ×10⁻⁶ cm/s. In the data set “physchem”, the solubility (kinetic) was 22 µM (≈ 9.51 µg/mL).

Consider `COc1ccc(-c2ccc3ncc4c(c3n2)n([C@H]2CC[C@H](O)CC2)c(=O)n4C)cn1`, for which the Papp in “in vitro” was determined as 14.3 ×10⁻⁶ cm/s. In the data set “physchem”, this compound came in with a solubility (kinetic) of 22.2 µM (≈ 9 µg/mL).

With `COCC(=O)N1CCC(n2c(=O)n(C)c3cnc4ccc(-c5ccc(C)nc5)nc4c32)CC1`, the apparent permeability coefficient (Papp) in “in vitro” is 20.2 ×10⁻⁶ cm/s.

`Cc1ccc(-c2ccc3ncc4c(c3n2)n(C2CCN(C(=O)C(C)(C)O)CC2)c(=O)n4C)cn1` had a Papp in “in vitro” of 21.9 ×10⁻⁶ cm/s.

`C[C@H](O)C(=O)N1CCC(n2c(=O)n(C)c3cnc4ccc(-c5cccc6[nH]ncc56)nc4c32)CC1` returned a Papp in the data set “in vitro” of 4.6 ×10⁻⁶ cm/s. The solubility (kinetic) in “physchem” was found to be 444 µM (≈ 209 µg/mL).

Consider `CC(=O)N1CCC(n2c(=O)n(C)c3cnc4ccc(-c5cnc6[nH]ncc6c5)nc4c32)CC1`, for which, in the data set “in vitro”, the Papp amounted to 3.97 ×10⁻⁶ cm/s.

Consider `CC(=O)N1CCC(n2c(=O)n(C)c3cnc4ccc(-c5cccc6[nH]ncc56)nc4c32)CC1`, for which the Papp in “in vitro” turned out to be 8.56 ×10⁻⁶ cm/s. The compound also gave a solubility (kinetic) in “physchem” of 55.5 µM (≈ 24.5 µg/mL).

As to `Cc1ccc(-c2ccc3ncc4c(c3n2)n(C2CCN(C(=O)CO)CC2)c(=O)n4C)cn1`, in “in vitro”, the Papp came to 18.2 ×10⁻⁶ cm/s.

Compound `COc1ccc(-c2ccc3ncc4c(c3n2)n(-c2ccc(C(C)(C)C#N)cc2)c(=O)n4C)cn1` registered an apparent permeability (Papp) in “in vitro” of 0.305 ×10⁻⁶ cm/s. Besides, in “physchem”, the solubility (kinetic) stood at 2 µM (≈ 0.901 µg/mL).

In turn, `CC(=O)N1CCC(n2c(=O)n(C)c3cnc4ccc(-c5ccc(C)nc5)nc4c32)CC1` showed a Papp in “in vitro” of 19.5 ×10⁻⁶ cm/s. In “physchem”, the kinetic solubility is 455 µM (≈ 190 µg/mL).

In the data set “in vitro”, `COc1ccc(-c2ccc3ncc4c(c3n2)n([C@H]2CC[C@H](OCCO)CC2)c(=O)n4C)cn1` returned a Papp of 14.3 ×10⁻⁶ cm/s. The solubility (kinetic) in “physchem” came to 117 µM (≈ 52.6 µg/mL).

Take `COc1ccc(-c2ccc3ncc4c(c3n2)n(C2CCN(C)CC2)c(=O)n4C)cn1`: the Vd in the data set “in vivo [1]” was 4.46 L/kg. Besides, in “in vivo [2]”, the bioavailability came out at 76%. This compound displayed a Papp in the data set “in vitro” of 6.65 ×10⁻⁶ cm/s.
